According to US11634702B2, “Cell signaling pathway activation by local AC electric field” (ARIZONA BOARD OF REGENTS ON BEHALF OF ARIZONA STATE …, priority 2018, dated 2023):

System: EGFR-Ras-ERK signaling pathway in MCF10A cells
Experiment: ERK activation by AC EF stimulation (ERKTR reporter) in blocker tests
Format: cell-based

## Cc1c(C)c2c(c(C)c1O)CCC(C)(C(=O)O)O2 (centres unmarked) [Trolox]
Trolox 350 μM
  effect on ERK activation under AC EF stimulation: neither Ca2+ chelator (BAPTA AM, 3 μM, Life Technologies), nor ROS quencher (Trolox, 350 μM, Sigma-Aldrich) could block the EF activation of ERK

## CC(=O)OCOC(=O)CN(CC(=O)OCOC(C)=O)c1ccccc1OCCOc1ccccc1N(CC(=O)OCOC(C)=O)CC(=O)OCOC(C)=O [BAPTA AM]
BAPTA AM 3 μM
  effect on ERK activation under AC EF stimulation: neither Ca2+ chelator (BAPTA AM, 3 μM, Life Technologies), nor ROS quencher (Trolox, 350 μM, Sigma-Aldrich) could block the EF activation of ERK
